# Experimental data taken from ChEMBL document CHEMBL4190235, “Polysubstituted 2-aminoimidazoles as anti-biofilm and antiproliferative agents: Discovery of potent lead” (Eur J Med Chem, 2017).
# Key:
# [1] = tested on: Pseudomonas aeruginosa; assay: Inhibition of planktonic growth of Pseudomonas aeruginosa PA14 cells; type: organism-based
# [2] = tested on: Staphylococcus aureus; assay: Inhibition of planktonic growth of Staphylococcus aureus SH1000; type: organism-based
# [3] = tested on: Salmonella typhimurium; assay: Inhibition of planktonic growth of Salmonella typhimurium ATCC 14028; type: organism-based, Salmonella enterica subsp. enterica serovar Typhimurium; settings: Salmonella enterica
# [4] = tested on: Salmonella typhimurium; assay: Antibiofilm activity against Salmonella typhimurium ATCC 14028 after 24 hrs by crystal violet staining based method; type: functional, Salmonella enterica subsp. enterica serovar Typhimurium
# [5] = tested on: Pseudomonas aeruginosa; assay: Antibiofilm activity against Pseudomonas aeruginosa PA14 after 24 hrs by crystal violet staining based method; type: functional
# [6] = tested on: Staphylococcus aureus; assay: Antibiofilm activity against Staphylococcus aureus SH1000 after 48 hrs by crystal violet staining based method; type: functional
# [7] = tested on: MIA PaCa-2; assay: Antiproliferative activity against human MIAPaCa2 cells after 48 hrs by MTT assay; type: functional, cell-based; settings: MIA PaCa-2, 48 h
# [8] = tested on: A-375; assay: Antiproliferative activity against human A375 cells after 48 hrs by MTT assay; type: functional, cell-based; settings: A-375, 48 h
Structure (SMILES),IC50 [1] [µM],IC50 [2] [µM],IC50 [3] [µM],MBIC50 [4] [µM],MBIC50 [5] [µM],MBIC50 [6] [µM],IC50 [7] [µM],IC50 [8] [µM]
CC(C)(C)c1ccc(Cc2nc(N)n(CC(=O)NCc3ccccc3)c2-c2ccccc2Br)cc1,> 400,> 400,> 400,>400,>400,>400,,
Cc1ccc(NC(=O)Cn2c(N)nc(CC3CC3)c2-c2ccccc2Br)cc1,23.6,30.6,24.5,21.3,16,21.9,3.5,2.6
CCCCCCCc1nc(N)n(CC(=O)Nc2ccc(C)cc2)c1-c1ccccc1Br,190,22.8,> 400,37.7,291.1,14.4,7,5.2
Nc1nc(Cc2ccccc2)c(-c2ccccc2Br)n1CC(=O)Nc1ccccc1,> 400,> 400,> 400,>400,>400,>400,5.7,5.2
O=c1cc(-c2ccccc2)oc2cc(O)c(O)c(O)c12 [BAICALEIN],> 400,> 400,> 400,>400,>400,77.5,,
CC(C)(C)c1ccc(Cc2nc(N)n(CC(=O)Nc3ccc([N+](=O)[O-])cc3)c2-c2ccccc2Br)cc1,> 400,> 400,> 400,>400,>400,>400,,
COc1ccc(NC(=O)Cn2c(N)nc(Cc3ccc(C(C)(C)C)cc3)c2-c2ccccc2Br)cc1,> 400,37.2,> 400,231.2,>400,11.5,,
CCCCCCc1nc(N)n(CC(=O)Nc2ccccc2)c1-c1ccccc1Br,119,16.3,> 400,35.7,50.7,6.6,8.6,5.7
CC(=O)O[C@H]1C(=O)[C@@]2(C)[C@H]([C@H](OC(=O)c3ccccc3)[C@]3(O)C[C@H](OC(=O)[C@H](O)[C@@H](NC(=O)c4ccccc4)c4ccccc4)C(C)=C1C3(C)C)[C@]1(OC(C)=O)CO[C@@H]1C[C@@H]2O [PACLITAXEL],,,,,,,2.5,0.7
Cc1ccc(NC(=O)Cn2c(N)nc(Cc3ccccc3)c2-c2ccccc2Br)cc1,13.8,12.3,29.8,6,16.8,7.6,3.8,2
CC(C)(C)c1ccc(Cc2nc(N)n(CC(=O)Nc3ccccc3)c2-c2ccccc2Br)cc1,> 400,7.8,> 400,12.5,124.3,6.5,4.9,2.8
Nc1nc(CC2CCCC2)c(-c2ccccc2Br)n1CC(=O)Nc1ccccc1,> 400,> 400,> 400,>400,>400,>400,61.4,24.3
CCCCCc1nc(N)n(CC(=O)Nc2ccccc2)c1-c1ccccc1Br,> 400,> 400,> 400,>400,>400,21.3,40.6,26.4
Cc1ccc(Cc2nc(N)n(CC(=O)Nc3ccccc3)c2-c2ccccc2Br)cc1,> 400,> 400,> 400,>400,>400,>400,9.2,2.5
O=C(N/N=C/c1ccc([N+](=O)[O-])o1)c1ccc(O)cc1 [NIFUROXAZIDE],> 400,> 400,> 400,>400,>400,>400,,
Nc1nc(CC2CCCCC2)c(-c2ccccc2Br)n1CC(=O)Nc1ccccc1,> 400,> 400,> 400,>400,>400,>400,89,40.6
Cc1ccc(NC(=O)Cn2c(N)nc(Cc3ccc(C(C)(C)C)cc3)c2-c2ccccc2Br)cc1,> 400,7.9,> 400,17.6,>400,3.9,3.4,1.4
Cc1ccc(NC(=O)Cn2c(N)nc(CC3CCCCC3)c2-c2ccccc2Br)cc1,> 400,> 400,> 400,>400,>400,>400,48.8,17.5
CCCCCCCc1nc(N)n(CC(=O)Nc2ccccc2)c1-c1ccccc1Br,> 400,70.8,> 400,114.8,221.9,18.1,7.9,9.2
Nc1nc(Cc2ccccc2)c(-c2ccccc2Br)n1CC(=O)NCc1ccccc1,55.7,55.7,> 400,38.8,382.1,41.5,,
COc1ccc(Cc2nc(N)n(CC(=O)Nc3ccc(C)cc3)c2-c2ccccc2Br)cc1,24.6,16.1,50.5,6.3,8.9,8.2,5.2,2.4
O=C(OC[C@H]1O[C@@H](OC(=O)c2cc(O)c(O)c(OC(=O)c3cc(O)c(O)c(O)c3)c2)[C@H](OC(=O)c2cc(O)c(O)c(OC(=O)c3cc(O)c(O)c(O)c3)c2)[C@@H](OC(=O)c2cc(O)c(O)c(OC(=O)c3cc(O)c(O)c(O)c3)c2)[C@@H]1OC(=O)c1cc(O)c(O)c(OC(=O)c2cc(O)c(O)c(O)c2)c1)c1cc(O)c(O)c(OC(=O)c2cc(O)c(O)c(O)c2)c1 [TANNIC ACID],> 400,> 400,> 400,18.8,27.7,115.3,,
CCCCCc1nc(N)n(CC(=O)Nc2ccc(C)cc2)c1-c1ccccc1Br,76,33.2,200,31.5,42.4,29.8,5.6,4.3
CCCCCCc1nc(N)n(CC(=O)Nc2ccc(C)cc2)c1-c1ccccc1Br,49.6,23.1,> 400,21.8,29.5,12.6,6.5,5.1
Nc1nc(CC2CC2)c(-c2ccccc2Br)n1CC(=O)Nc1ccccc1,155,130,> 400,107.6,86.3,29.2,6.9,5.8
